One may read the Ki as a measure of affinity in units of concentration, obtained from inhibition or displacement.

Ki data for 14 compounds are collected here from patent US8299048B2, “Hexahydrocyclopentyl[f]indazole sulfonamides and derivatives thereof as selective glucocorticoid receptor modulators” (Merck Sharp & Dohme Corp., priority 2008, dated 2012).

Structures are written as SMILES.

The target in this experiment is T1, glucocorticoid receptor (Homo sapiens, UniProt P04150).
T1 construct: endogenous in cells
T1 sequence (P04150 1-777): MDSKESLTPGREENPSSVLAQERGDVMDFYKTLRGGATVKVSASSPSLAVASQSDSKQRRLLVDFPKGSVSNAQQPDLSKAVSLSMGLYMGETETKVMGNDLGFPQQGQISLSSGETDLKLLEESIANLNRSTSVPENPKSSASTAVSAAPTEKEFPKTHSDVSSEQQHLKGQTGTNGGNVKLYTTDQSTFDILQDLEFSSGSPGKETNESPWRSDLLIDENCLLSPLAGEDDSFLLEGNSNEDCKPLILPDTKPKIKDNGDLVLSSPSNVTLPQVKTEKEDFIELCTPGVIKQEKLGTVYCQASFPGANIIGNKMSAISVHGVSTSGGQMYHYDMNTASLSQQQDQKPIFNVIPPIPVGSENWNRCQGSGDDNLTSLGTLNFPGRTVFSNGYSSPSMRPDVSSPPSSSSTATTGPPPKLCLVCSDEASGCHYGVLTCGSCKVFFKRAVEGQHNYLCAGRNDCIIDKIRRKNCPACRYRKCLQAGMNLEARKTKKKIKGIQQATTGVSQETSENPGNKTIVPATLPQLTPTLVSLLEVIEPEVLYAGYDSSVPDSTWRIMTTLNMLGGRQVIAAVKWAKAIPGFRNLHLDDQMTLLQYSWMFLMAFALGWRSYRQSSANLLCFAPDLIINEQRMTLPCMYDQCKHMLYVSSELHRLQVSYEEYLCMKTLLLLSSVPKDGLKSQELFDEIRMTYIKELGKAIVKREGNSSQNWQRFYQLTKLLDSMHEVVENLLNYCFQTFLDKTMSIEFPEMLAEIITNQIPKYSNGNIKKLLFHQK
Put plainly: Ligand binding assay (GR BIND). Summed up:
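Cytosol from freeze–thawed cells in TEGM (pH 7.2, 10 mM molybdate) was incubated overnight at 4 °C with compound and [3H]-dexamethasone trace (added as 6 nM solution), 2% EtOH final. Bound ligand was captured on hydroxylapatite, filtered, washed and scintillation counted. Values were calculated with dexamethasone as reference.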
The compound `COC(=O)c1ccccc1CS(=O)(=O)N(CCc1ccccc1F)C[C@H]1CCC2=Cc3c(cnn3-c3ccc(F)cc3)C[C@@]21C` [Example 188, methyl 2-{[([2-(2-fluorophenyl)ethyl]{[(4αR,5S)-1-(4-fluorophenyl)-4α-methyl-1,4,4α,5,6,7-hexahydrocyclopenta[f]indazol-5-yl]methyl}amino)sulfonyl]methyl}benzoate] came in with a Ki of 1.2 nM.

For the compound `COC(=O)c1ccccc1S(=O)(=O)N(CCc1ccccc1F)C[C@H]1CCC2=Cc3c(cnn3-c3ccc(F)cc3)C[C@@]21C` [Example 189, methyl 2-[([2-(2-fluorophenyl)ethyl]{[(4αR,5S)-1-(4-fluorophenyl)-4α-methyl-1,4,4α,5,6,7-hexahydrocyclopenta[f]indazol-5-yl]methyl}amino)sulfonyl]benzoate], the inhibitory constant (Ki) worked out at 1.1 nM.

In turn, `C[C@]12Cc3cnn(-c4ccc(F)cc4)c3C=C1CC[C@@H]2CN(CCc1ccccc1F)S(=O)(=O)Cc1ccccc1C(N)=O` [Example 190, 2-{[([2-(2-fluorophenyl)ethyl]{[(4αR,5S)-1-(4-fluorophenyl)-4α-methyl-1,4,4α,5,6,7-hexahydrocyclopenta[f]indazol-5-yl]methyl}amino)sulfonyl]methyl}benzamide] returned a Ki of 1.5 nM.

`C[C@]12Cc3cnn(-c4ccc(F)cc4)c3C=C1CC[C@@H]2CN(CC1CCCO1)S(=O)(=O)c1ccc(C(N)=O)cc1` (stereo partly drawn) [Example 191, 4-{[{[(4αR,5S)-1-(4-fluorophenyl)-4α-methyl-1,4,4α,5,6,7-hexahydrocyclopenta[f]indazol-5-yl]methyl}(tetrahydrofuran-2-ylmethyl)amino]sulfonyl}benzamide] displayed an inhibitory constant (Ki) of 2 nM. This Ki and that of the compound before are within 1.5-fold of each other.

As for `C[C@]12Cc3cnn(-c4ccc(F)cc4)c3C=C1CC[C@@H]2CN(Cc1ccccc1F)S(=O)(=O)c1cccc(C(N)=O)c1` [Example 192, 3-[((2-fluorobenzyl){[(4αR,5S)-1-(4-fluorophenyl)-4α-methyl-1,4,4α,5,6,7-hexahydrocyclopenta[f]indazol-5-yl]methyl}amino)sulfonyl]benzamide], the Ki was 0.9 nM. Against the preceding compound, the Ki is about 2.2-fold lower.

Compound `C[C@]12Cc3cnn(-c4ccc(F)cc4)c3C=C1CC[C@@H]2CN(CCCc1ccccc1)S(=O)(=O)CC(F)(F)F` [Example 193, 2,2,2-trifluoro-N-{[(4αR,5S)-1-(4-fluorophenyl)-4α-methyl-1,4,4α,5,6,7-hexahydrocyclopenta[f]indazol-5-yl]methyl}-N-(3-phenylpropyl)ethanesulfonamide] displayed an inhibitory constant (Ki) of 1 nM. The Ki values of the last two compounds are within 1.5-fold of each other.

Turning to `Cc1noc(C)c1S(=O)(=O)N(CCCc1ccccc1)C[C@H]1CCC2=Cc3c(cnn3-c3ccc(F)cc3)C[C@@]21C` [Example 194, N-{[(4αR,5S)-1-(4-fluorophenyl)-4α-methyl-1,4,4α,5,6,7-hexahydrocyclopenta[f]indazol-5-yl]methyl}-3,5-dimethyl-N-(3-phenylpropyl)isoxazole-4-sulfonamide], the affinity, expressed as Ki, was 1.5 nM. Against the preceding compound, the Ki is about 1.5-fold higher.

In turn, `C[C@]12Cc3cnn(-c4ccc(F)cc4)c3C=C1CC[C@@H]2CN(CCCc1ccccc1)S(=O)(=O)c1ccccc1F` [Example 195, 2-fluoro-N-{[(4αR,5S)-1-(4-fluorophenyl)-4α-methyl-1,4,4α,5,6,7-hexahydrocyclopenta[f]indazol-5-yl]methyl}-N-(3-phenylpropyl)benzenesulfonamide] yielded a Ki of 0.6 nM. This Ki lies about 2.5-fold lower than the previous one.

Compound `C[C@]12Cc3cnn(-c4ccc(F)cc4)c3C=C1CC[C@@H]2CN(CCc1ccccn1)S(=O)(=O)Cc1ccccc1C(N)=O` [Example 196, 2-({[{[(4αR,5S)-1-(4-fluorophenyl)-4α-methyl-1,4,4α,5,6,7-hexahydrocyclopenta[f]indazol-5-yl]methyl}(2-pyridin-2-ylethyl)amino]sulfonyl}methyl)benzamide] returned a Ki of 2.7 nM.

`CC([C@H]1CCC2=Cc3c(cnn3-c3ccc(F)cc3)C[C@@]21C)N(CCc1ccccn1)S(=O)(=O)Cc1cccnc1` (stereo partly drawn) [Example 197, N-{1-[(4αR)-1-(4-fluorophenyl)-4α-methyl-1,4,4α,5,6,7-hexahydrocyclopenta[f]indazol-5-yl]ethyl}-1-pyridin-3-yl-N-(2-pyridin-2-ylethyl)methanesulfonamide] registered an inhibition constant Ki of 4.4 nM.

With `C[C@]12Cc3cnn(-c4ccc(F)cc4)c3C=C1CC[C@@H]2CN(CCO)S(=O)(=O)Cc1ccccc1C(N)=O` [Example 198, 2-({[{[(4αR,5S)-1-(4-fluorophenyl)-4α-methyl-1,4,4α,5,6,7-hexahydrocyclopenta[f]indazol-5-yl]methyl}(2-hydroxyethyl)amino]sulfonyl}methyl)benzamide], the inhibitory constant (Ki) turned out to be 14.3 nM.

`CC(C)(O)CN(C[C@H]1CCC2=Cc3c(cnn3-c3ccc(F)cc3)C[C@@]21C)S(=O)(=O)c1ccccc1F` [Example 199, 2-fluoro-N-{[(4αR,5S)-1-(4-fluorophenyl)-4α-methyl-1,4,4α,5,6,7-hexahydrocyclopenta[f]indazol-5-yl]methyl}-N-(2-hydroxy-2-methylpropyl)benzenesulfonamide] yielded a Ki of 2.4 nM.

With `C[C@]12Cc3cnn(-c4ccc(F)cc4)c3C=C1CC[C@@H]2CN(CC1(O)CC1)S(=O)(=O)c1ccccc1F` [Example 200, 2-fluoro-N-{[(4αR,5S)-1-(4-fluorophenyl)-4α-methyl-1,4,4α,5,6,7-hexahydrocyclopenta[f]indazol-5-yl]methyl}-N-[(1-hydroxycyclopropyl)methyl]benzenesulfonamide], the affinity corresponds to a Ki of 1.8 nM.

As for `C[C@]12Cc3cnn(-c4ccc(F)cc4)c3C=C1CC[C@@H]2CN(CC1(O)CCCCC1)S(=O)(=O)c1ccccc1F` [Example 201, 2-fluoro-N-{[(4αR,5S)-1-(4-fluorophenyl)-4α-methyl-1,4,4α,5,6,7-hexahydrocyclopenta[f]indazol-5-yl]methyl}-N-[(1-hydroxycyclohexyl)methyl]benzenesulfonamide], affinity was put at a Ki of 2.3 nM. This Ki and that of the compound before are within 1.5-fold of each other.
